Source: ChEMBL document CHEMBL4507267 (2021)

What was measured:
[1] = molecular target: Serine/threonine-protein kinase SBK1 (Homo sapiens) (UniProt Q52WX2); settings: Compound concentration 1000.0 nM
[2] = system: Mast/stem cell growth factor receptor Kit (Homo sapiens), P10721 [A829P]; settings: Compound concentration 1000.0 nM
[3] = molecular target: Serine/threonine-protein kinase D2 (Homo sapiens) (UniProt Q9BZL6); settings: Compound concentration 1000.0 nM
[4] = molecular target: Myosin light chain kinase, smooth muscle (Homo sapiens) (UniProt Q15746); settings: Compound concentration 1000.0 nM
[5] = molecular target: Casein kinase II subunit alpha' (Homo sapiens) (UniProt P19784); settings: Compound concentration 1000.0 nM
[6] = system: Epidermal growth factor receptor (Homo sapiens), P00533 [L861Q]; settings: Compound concentration 1000.0 nM
[7] = molecular target: MAP kinase-interacting serine/threonine-protein kinase 2 (Homo sapiens) (UniProt Q9HBH9); settings: Compound concentration 1000.0 nM
[8] = system: Hepatocyte growth factor receptor (Homo sapiens), P08581 [M1250T]; settings: Compound concentration 1000.0 nM
[9] = molecular target: Serine/threonine-protein kinase TBK1 (Homo sapiens) (UniProt Q9UHD2); settings: Compound concentration 1000.0 nM
[10] = molecular target: Activin receptor type-1 (Homo sapiens) (UniProt Q04771); settings: Compound concentration 1000.0 nM
[11] = molecular target: Tyrosine-protein kinase HCK (Homo sapiens) (UniProt P08631); settings: Compound concentration 1000.0 nM
[12] = molecular target: Mast/stem cell growth factor receptor Kit (Homo sapiens) (UniProt P10721); settings: Compound concentration 1000.0 nM
[13] = molecular target: Serine/threonine-protein kinase ULK1 (Homo sapiens) (UniProt O75385); settings: Compound concentration 1000.0 nM
[14] = molecular target: Dual specificity mitogen-activated protein kinase kinase 2 (Homo sapiens) (UniProt P36507); settings: Compound concentration 1000.0 nM
[15] = molecular target: Testis-specific serine/threonine-protein kinase 3 (Homo sapiens) (UniProt Q96PN8); settings: Compound concentration 1000.0 nM
[16] = molecular target: Ribosomal protein S6 kinase alpha-6 (Homo sapiens) (UniProt Q9UK32); settings: Compound concentration 1000.0 nM
[17] = molecular target: Activin receptor type-2B (Homo sapiens) (UniProt Q13705); settings: Compound concentration 1000.0 nM
[18] = molecular target: Serine/threonine-protein kinase pim-1 (Homo sapiens) (UniProt P11309); settings: Compound concentration 1000.0 nM
[19] = system: Tyrosine-protein kinase ABL1 (Homo sapiens), P00519 [F317I]; settings: Compound concentration 1000.0 nM
[20] = molecular target: Serine/threonine-protein kinase PAK 2 (Homo sapiens) (UniProt Q13177); settings: Compound concentration 1000.0 nM
[21] = molecular target: D(3) dopamine receptor (Homo sapiens) (UniProt P35462); settings: Compound concentration 10.0 uM
[22] = molecular target: Serine/threonine-protein kinase PAK 4 (Homo sapiens) (UniProt O96013); settings: Compound concentration 1000.0 nM
[23] = molecular target: Serine/threonine-protein kinase ULK3 (Homo sapiens) (UniProt Q6PHR2); settings: Compound concentration 1000.0 nM
[24] = molecular target: Mitogen-activated protein kinase kinase kinase 14 (Homo sapiens) (UniProt Q99558); settings: Compound concentration 1000.0 nM
[25] = molecular target: Tyrosine-protein kinase JAK2 (Homo sapiens) (UniProt O60674); settings: Compound concentration 1000.0 nM
[26] = molecular target: RAC-beta serine/threonine-protein kinase (Homo sapiens) (UniProt P31751); settings: Compound concentration 1000.0 nM
[27] = molecular target: ALK tyrosine kinase receptor (Homo sapiens) (UniProt Q9UM73); settings: Compound concentration 1000.0 nM
[28] = molecular target: Microtubule-associated serine/threonine-protein kinase 1 (Homo sapiens) (UniProt Q9Y2H9); settings: Compound concentration 1000.0 nM
[29] = molecular target: Hepatocyte growth factor receptor (Homo sapiens) (UniProt P08581); settings: Compound concentration 1000.0 nM
[30] = molecular target: G protein-coupled receptor kinase 3 (Homo sapiens) (UniProt P35626); settings: Compound concentration 1000.0 nM
[31] = molecular target: LIM domain kinase 1 (Homo sapiens) (UniProt P53667); settings: Compound concentration 1000.0 nM
[32] = molecular target: Proto-oncogene tyrosine-protein kinase Src (Homo sapiens) (UniProt P12931); settings: Compound concentration 1000.0 nM
[33] = molecular target: Mitogen-activated protein kinase kinase kinase kinase 4 (Homo sapiens) (UniProt O95819); settings: Compound concentration 1000.0 nM
[34] = molecular target: Cyclin-dependent kinase 4 (Homo sapiens) (UniProt P11802); settings: Compound concentration 1000.0 nM
[35] = molecular target: Serine/threonine-protein kinase 4 (Homo sapiens) (UniProt Q13043); settings: Compound concentration 1000.0 nM
[36] = molecular target: Dual specificity mitogen-activated protein kinase kinase 3 (Homo sapiens) (UniProt P46734); settings: Compound concentration 1000.0 nM
[37] = molecular target: Interleukin-1 receptor-associated kinase 1 (Homo sapiens) (UniProt P51617); settings: Compound concentration 1000.0 nM
[38] = molecular target: Histamine H4 receptor (Homo sapiens) (UniProt Q9H3N8); settings: Compound concentration 10.0 uM
[39] = molecular target: Dual specificity tyrosine-phosphorylation-regulated kinase 2 (Homo sapiens) (UniProt Q92630); settings: Compound concentration 1000.0 nM
[40] = molecular target: Serine/threonine-protein kinase PLK1 (Homo sapiens) (UniProt P53350); settings: Compound concentration 1000.0 nM
[41] = molecular target: Mu-type opioid receptor (Homo sapiens) (UniProt P35372); settings: Compound concentration 10.0 uM
[42] = molecular target: Tyrosine-protein kinase Tec (Homo sapiens) (UniProt P42680); settings: Compound concentration 1000.0 nM
[43] = molecular target: Fibroblast growth factor receptor 1 (Homo sapiens) (UniProt P11362); settings: Compound concentration 1000.0 nM
[44] = molecular target: Calcium/calmodulin-dependent protein kinase type II subunit gamma (Homo sapiens) (UniProt Q13555); settings: Compound concentration 1000.0 nM
[45] = molecular target: Beta-adrenergic receptor kinase 1 (Homo sapiens) (UniProt P25098); settings: Compound concentration 1000.0 nM
Chain of Beta-adrenergic receptor kinase 1 (Homo sapiens) (P25098 whole entry): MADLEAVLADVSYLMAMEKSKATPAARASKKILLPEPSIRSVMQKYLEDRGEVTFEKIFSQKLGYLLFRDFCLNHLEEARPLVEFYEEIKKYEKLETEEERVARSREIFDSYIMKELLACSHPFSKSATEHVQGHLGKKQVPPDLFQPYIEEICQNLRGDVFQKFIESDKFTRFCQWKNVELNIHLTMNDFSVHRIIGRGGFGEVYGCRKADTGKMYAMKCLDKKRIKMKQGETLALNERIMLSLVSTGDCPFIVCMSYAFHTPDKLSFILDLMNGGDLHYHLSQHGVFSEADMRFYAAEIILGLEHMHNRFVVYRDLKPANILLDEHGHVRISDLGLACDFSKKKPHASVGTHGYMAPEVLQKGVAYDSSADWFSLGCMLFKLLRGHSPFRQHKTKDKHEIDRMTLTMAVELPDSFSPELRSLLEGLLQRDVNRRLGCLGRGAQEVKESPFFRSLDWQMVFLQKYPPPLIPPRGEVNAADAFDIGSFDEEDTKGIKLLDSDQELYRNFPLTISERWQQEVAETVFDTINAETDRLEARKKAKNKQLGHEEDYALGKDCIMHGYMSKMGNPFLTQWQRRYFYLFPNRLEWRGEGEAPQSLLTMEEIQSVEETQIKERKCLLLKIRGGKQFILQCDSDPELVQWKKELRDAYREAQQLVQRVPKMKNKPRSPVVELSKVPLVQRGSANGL

Chain of G protein-coupled receptor kinase 3 (Homo sapiens) (P35626 whole entry, the tested form may be a part): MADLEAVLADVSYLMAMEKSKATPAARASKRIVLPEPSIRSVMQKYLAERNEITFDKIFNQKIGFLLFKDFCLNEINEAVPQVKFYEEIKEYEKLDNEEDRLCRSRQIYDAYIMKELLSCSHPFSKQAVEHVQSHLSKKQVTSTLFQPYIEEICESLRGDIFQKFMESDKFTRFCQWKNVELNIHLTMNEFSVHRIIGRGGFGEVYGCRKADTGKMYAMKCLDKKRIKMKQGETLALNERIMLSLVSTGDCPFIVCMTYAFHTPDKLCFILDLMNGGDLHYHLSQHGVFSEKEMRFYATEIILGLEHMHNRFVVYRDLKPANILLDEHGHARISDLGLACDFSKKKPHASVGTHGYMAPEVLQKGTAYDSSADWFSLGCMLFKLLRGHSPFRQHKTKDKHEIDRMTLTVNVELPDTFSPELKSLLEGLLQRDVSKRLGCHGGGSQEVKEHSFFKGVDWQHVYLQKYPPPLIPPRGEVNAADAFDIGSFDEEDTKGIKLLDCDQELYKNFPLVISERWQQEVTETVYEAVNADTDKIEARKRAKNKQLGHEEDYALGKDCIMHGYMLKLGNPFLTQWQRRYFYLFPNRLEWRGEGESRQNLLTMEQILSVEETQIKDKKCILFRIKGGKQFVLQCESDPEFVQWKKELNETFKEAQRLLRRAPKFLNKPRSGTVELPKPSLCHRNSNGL
Chain of Tyrosine-protein kinase ABL1 (Homo sapiens), P00519 [F317I] (P00519 whole entry F317I): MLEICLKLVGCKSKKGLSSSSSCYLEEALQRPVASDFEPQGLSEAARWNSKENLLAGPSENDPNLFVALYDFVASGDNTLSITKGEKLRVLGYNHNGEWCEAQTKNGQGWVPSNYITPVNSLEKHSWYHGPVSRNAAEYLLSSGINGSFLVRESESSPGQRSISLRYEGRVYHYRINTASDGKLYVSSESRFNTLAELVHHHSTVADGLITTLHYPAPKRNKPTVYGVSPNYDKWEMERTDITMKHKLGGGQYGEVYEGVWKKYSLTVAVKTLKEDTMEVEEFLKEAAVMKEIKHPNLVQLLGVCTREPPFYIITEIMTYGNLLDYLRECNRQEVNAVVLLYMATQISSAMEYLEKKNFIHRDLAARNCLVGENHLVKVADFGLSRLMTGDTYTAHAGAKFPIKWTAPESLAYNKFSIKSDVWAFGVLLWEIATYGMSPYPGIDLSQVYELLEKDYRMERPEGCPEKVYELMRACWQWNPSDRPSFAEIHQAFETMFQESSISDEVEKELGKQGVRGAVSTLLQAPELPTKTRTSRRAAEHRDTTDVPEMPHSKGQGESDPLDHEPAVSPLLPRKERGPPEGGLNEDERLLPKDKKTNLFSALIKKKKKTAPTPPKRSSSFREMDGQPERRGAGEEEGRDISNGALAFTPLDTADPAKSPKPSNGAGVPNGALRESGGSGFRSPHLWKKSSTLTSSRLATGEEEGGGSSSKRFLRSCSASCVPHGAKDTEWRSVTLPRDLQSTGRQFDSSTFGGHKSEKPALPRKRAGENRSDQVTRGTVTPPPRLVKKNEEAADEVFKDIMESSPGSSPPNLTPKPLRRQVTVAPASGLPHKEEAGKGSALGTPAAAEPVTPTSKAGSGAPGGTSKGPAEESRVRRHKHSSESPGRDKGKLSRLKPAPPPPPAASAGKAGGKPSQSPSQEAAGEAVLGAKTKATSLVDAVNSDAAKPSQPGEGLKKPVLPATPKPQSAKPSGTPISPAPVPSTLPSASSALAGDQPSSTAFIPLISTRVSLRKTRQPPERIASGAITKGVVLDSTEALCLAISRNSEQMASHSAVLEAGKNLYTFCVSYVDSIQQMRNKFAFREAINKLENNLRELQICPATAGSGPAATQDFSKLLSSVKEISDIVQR
Chain of Calcium/calmodulin-dependent protein kinase type II subunit gamma (Homo sapiens) (Q13555 whole entry): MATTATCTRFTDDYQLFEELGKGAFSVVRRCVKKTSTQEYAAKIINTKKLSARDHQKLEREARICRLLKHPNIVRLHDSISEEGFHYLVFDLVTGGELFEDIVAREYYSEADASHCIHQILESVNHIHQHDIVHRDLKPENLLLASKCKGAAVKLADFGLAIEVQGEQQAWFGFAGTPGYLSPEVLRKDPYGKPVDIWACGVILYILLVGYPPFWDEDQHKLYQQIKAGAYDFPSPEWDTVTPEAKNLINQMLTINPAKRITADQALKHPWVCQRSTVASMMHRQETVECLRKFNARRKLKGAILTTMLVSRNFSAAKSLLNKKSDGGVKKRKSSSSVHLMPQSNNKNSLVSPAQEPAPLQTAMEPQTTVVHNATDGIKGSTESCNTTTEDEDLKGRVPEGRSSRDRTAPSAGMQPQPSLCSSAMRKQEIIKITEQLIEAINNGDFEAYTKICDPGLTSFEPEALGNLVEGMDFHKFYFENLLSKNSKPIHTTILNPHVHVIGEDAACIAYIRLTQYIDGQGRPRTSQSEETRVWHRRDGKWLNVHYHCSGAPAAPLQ
Chain of Mast/stem cell growth factor receptor Kit (Homo sapiens), P10721 [A829P] (P10721 whole entry A829P): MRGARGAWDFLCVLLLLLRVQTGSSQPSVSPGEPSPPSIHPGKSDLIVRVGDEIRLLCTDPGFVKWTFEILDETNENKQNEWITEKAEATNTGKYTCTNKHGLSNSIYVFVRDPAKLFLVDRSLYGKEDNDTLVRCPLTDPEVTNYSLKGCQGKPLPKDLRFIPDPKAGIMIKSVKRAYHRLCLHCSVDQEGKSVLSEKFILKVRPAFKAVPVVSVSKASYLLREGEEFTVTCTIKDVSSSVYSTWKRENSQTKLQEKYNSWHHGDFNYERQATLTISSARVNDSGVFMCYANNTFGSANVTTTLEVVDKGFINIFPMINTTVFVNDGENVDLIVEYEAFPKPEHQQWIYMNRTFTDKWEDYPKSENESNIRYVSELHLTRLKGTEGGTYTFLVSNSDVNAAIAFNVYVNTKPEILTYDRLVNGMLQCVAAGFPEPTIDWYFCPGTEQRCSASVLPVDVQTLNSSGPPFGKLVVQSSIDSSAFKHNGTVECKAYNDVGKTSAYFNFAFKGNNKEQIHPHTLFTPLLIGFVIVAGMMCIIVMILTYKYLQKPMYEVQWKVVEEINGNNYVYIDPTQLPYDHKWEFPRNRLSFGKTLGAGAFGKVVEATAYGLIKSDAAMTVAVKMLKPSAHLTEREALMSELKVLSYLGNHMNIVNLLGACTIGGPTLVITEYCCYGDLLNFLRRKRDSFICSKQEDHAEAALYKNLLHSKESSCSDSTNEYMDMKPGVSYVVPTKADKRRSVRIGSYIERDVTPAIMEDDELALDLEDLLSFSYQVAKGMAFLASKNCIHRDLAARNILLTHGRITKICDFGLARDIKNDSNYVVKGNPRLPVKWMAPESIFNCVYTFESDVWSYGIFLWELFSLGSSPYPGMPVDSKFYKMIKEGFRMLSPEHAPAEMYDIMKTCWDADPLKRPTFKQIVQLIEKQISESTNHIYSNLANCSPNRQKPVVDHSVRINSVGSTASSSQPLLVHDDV
Chain of Serine/threonine-protein kinase PAK 4 (Homo sapiens) (O96013 whole entry, looked up): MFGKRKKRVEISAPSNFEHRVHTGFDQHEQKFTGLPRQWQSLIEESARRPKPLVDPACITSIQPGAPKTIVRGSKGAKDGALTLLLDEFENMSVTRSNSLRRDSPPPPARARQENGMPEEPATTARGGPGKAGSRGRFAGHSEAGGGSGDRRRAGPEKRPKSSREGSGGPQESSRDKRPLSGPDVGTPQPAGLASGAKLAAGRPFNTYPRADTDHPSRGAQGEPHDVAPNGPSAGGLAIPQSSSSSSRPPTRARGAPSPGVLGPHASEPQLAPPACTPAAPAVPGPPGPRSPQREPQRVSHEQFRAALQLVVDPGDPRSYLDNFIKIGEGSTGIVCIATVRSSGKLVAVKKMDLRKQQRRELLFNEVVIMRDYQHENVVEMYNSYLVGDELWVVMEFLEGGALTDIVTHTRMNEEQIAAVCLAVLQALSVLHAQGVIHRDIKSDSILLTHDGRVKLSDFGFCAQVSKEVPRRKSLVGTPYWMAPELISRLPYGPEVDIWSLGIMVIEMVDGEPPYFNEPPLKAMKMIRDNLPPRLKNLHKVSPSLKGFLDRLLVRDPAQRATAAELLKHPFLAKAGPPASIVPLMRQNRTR
Chain of Mu-type opioid receptor (Homo sapiens) (P35372 whole entry): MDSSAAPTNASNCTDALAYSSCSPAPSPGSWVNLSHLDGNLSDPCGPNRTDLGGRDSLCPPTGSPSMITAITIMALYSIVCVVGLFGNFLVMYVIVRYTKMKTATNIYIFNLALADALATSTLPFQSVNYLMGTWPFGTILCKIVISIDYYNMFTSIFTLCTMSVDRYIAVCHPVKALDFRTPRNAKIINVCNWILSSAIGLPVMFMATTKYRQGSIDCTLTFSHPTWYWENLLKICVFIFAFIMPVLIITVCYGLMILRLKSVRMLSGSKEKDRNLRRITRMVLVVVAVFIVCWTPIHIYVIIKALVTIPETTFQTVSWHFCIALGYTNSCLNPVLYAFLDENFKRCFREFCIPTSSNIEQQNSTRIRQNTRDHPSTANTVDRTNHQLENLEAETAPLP

Cc1c(NC(=O)c2cc(C(N)=O)nc3cc(F)ccc23)c(C(F)(F)F)nn1Cc1ccc(C(C)(C)C)cc1 [BAY-588]
inactive: residual activity [1] 100% | residual activity [2] 98% | residual activity [3] 100% | residual activity [4] 97% | residual activity [5] 100% | residual activity [6] 65% | residual activity [7] 100% | residual activity [8] 88% | residual activity [9] 95% | residual activity [10] 100% | residual activity [11] 92% | residual activity [12] 100% | residual activity [13] 98% | residual activity [14] 100% | residual activity [15] 100% | residual activity [16] 100% | residual activity [17] 100% | residual activity [18] 100% | residual activity [19] 100% | residual activity [20] 85% | inhibition [21] 11.9% | residual activity [22] 100% | residual activity [23] 97% | residual activity [24] 100% | residual activity [25] 100% | residual activity [26] 98% | residual activity [27] 96% | residual activity [28] 100% | residual activity [29] 100% | residual activity [30] 100% | residual activity [31] 100% | residual activity [32] 100% | residual activity [33] 76% | residual activity [34] 100% | residual activity [35] 95% | residual activity [36] 90% | residual activity [37] 100% | inhibition [38] 13% | residual activity [39] 88% | residual activity [40] 99% | inhibition [41] 4.84% | residual activity [42] 94% | residual activity [43] 93% | residual activity [44] 82% | residual activity [45] 100%

Cc1c(NC(=O)c2cc(C(N)=O)nc3cc(F)ccc23)c(C(F)(F)F)nn1Cc1ccc(C#N)cc1 [BAY-876]
inactive: residual activity [1] 75% | residual activity [2] 64% | residual activity [3] 100% | residual activity [4] 65% | residual activity [5] 100% | residual activity [6] 67% | residual activity [7] 92% | residual activity [8] 91% | residual activity [9] 70% | residual activity [10] 87% | residual activity [11] 69% | residual activity [12] 72% | residual activity [13] 81% | residual activity [14] 89% | residual activity [15] 82% | residual activity [16] 78% | residual activity [17] 93% | residual activity [18] 86% | residual activity [19] 96% | residual activity [20] 88% | inhibition [21] 1.46% | residual activity [22] 98% | residual activity [23] 74% | residual activity [24] 72% | residual activity [25] 75% | residual activity [26] 98% | residual activity [27] 87% | residual activity [28] 77% | residual activity [29] 100% | residual activity [30] 89% | residual activity [31] 78% | residual activity [32] 81% | residual activity [33] 84% | residual activity [34] 100% | residual activity [35] 84% | residual activity [36] 88% | residual activity [37] 70% | inhibition [38] 29% | residual activity [39] 88% | residual activity [40] 88% | inhibition [41] 6.68% | residual activity [42] 85% | residual activity [43] 100% | residual activity [44] 86% | residual activity [45] 87%
